Assays:
[1] = test system: elevated zero-maze model of anxiety; settings: dose of 100 mg/Kg; orally by gavage 1 hour prior to zero-maze testing
Description: Male Sprague-Dawley rats (Charles River) weighing 300-450 gm are used. Animals are group-housed (5 per cage; cage size: 40×40×20 cm) in a temperature-controlled environment (20±2° C.), under a 12 h light-dark cycle (lights on: 08:00 hours). Food and water are made freely available. Four hours prior to testing, animals are transferred to clean cages and moved to the testing room in order to habituate to the testing environment.
The maze is comprised of a black Perspex annular platform (105 cm diameter, 10 cm width) elevated to 65 cm above ground level, divided equally into four quadrants. Two opposite quadrants are enclosed by clear red Perspex walls (27 cm high) on both the inner and outer edges of the platform, while the remaining two opposite quadrants are surrounded only by a Perspex “lip” (1 cm high) which serves as a tactile guide to animals on these open areas. […]
Rats are placed on a closed quadrant and a 5 min test period is recorded on video-tape. […] Animals are scored as being in the open area when all four paws were in an open quadrant, and in the closed area only when all four paws passed over the open/closed divide. […]

3-MPA-Induced Seizures = experiment: Antagonism of 3-MPA-induced seizures; assay type: in vivo; settings: mg/kg i.v. of 3-MPA required to evoke a seizure response; test drug 30 mg/kg p.o. 60 min before 3-MPA; male T/O mice
Description: Several animal seizure models are available for the screening and characterisation of anticonvulsant (antiepileptic) drugs, Most models employ a chemical convulsant to induce seizures and the anticonvulsant potencies of novel compounds are measured in terms of their ability to increase the dose of convulsant required to induce a seizure response (or to prolong the latency to seizure onset following a bolus dose of the convulsant). Most chemical convulsants work by blocking the neurotran […] function of gamma-aminobutyric acid (GABA), the predominant inhibitory neurotransmitter in the mammalian brain. This can be achieved by blocking the postsynaptic action of GABA using pentylenetetrazol or bicuculline, or via a presynaptic action using a GABA synthesis inhibitor to decrease GABA release into the synapse. […] Male albino […] (obtained from Tuck) weighing 28-40 g were used in these studies. […] Immediately following 3-MPA administration, each mouse was placed individually into a cage for observation. The seizure response of each animal was scored quantally as present or absent (response or non-response) during the 5 min period immediately following 3-MPA administration. A seizure response was defined as the onset of the initial clonic phase of the seizure (abrupt loss of righting reflex accompanied by vocalisation). The seizure threshold (in terms of mg/kg i.v. of 3-MPA required to evoke a seizure response) was determined in each treatment group by a sequential up/down method followed by modified probit analysis of the quantal data. […] In these studies, 3-MPA was obtained from Sigma. […] Drugs were administered in a dose volume of 10 ml/kg body weight.

## C#CCNC(=O)N1CC(c2ccc(F)cc2)C1 [Example 6, 3-(4-Fluorophenyl)-N-(2-propynyl)azetddine-1-carboxamide]
[1]
  anxiolytic activity (increase in the frequency of head dips): effective
3-MPA-Induced Seizures
  SC = Seizure threshold after treatment with test drug: 59.5 mg/kg

## C#CCNC(=O)N1CC(c2ccc(C(C)(C)C)cc2)C1 [Example 3, 3-(4-tert-Butylphenyl)-N-(2-propynyl)azetidine-1-carboxamide]
other
  melting point: 141 °C
3-MPA-Induced Seizures
  SC = Seizure threshold after treatment with test drug: 21.4 mg/kg

Source: patent US6831078B1, “Azetidinecarboxamide derivatives for treating CNS disorders” (Vernalis Research Limited, priority 1998, dated 2004)
